Experiments:
NK cells [1] = test: Activity of NK cells in mice bearing cancer; type: in vivo, DBA/2 mice; details: 20 mg/kg, iv × 7
Method: Each of 60 DBA/2 mice was inoculated subcutaneously with 1×10^4 L1210 leukemia cells of mice. Next day, the mice were grouped randomly into 6 groups (10 mice per group): Lentinan 20 mg/kg, the injection of the invention (6.25 ml/kg, 12.5 ml/kg and 25 ml/kg), solvent control and NS control. Animals were administered, i.v., for 7 days, then sacrificed. Spleens were picked up in aseptic condition. Splenocytes were prepared and adjusted into 1×10^6/ml. The activity of NK cells was detected by using the inhibition on ^3H-TdR incorporation. To wells of a 96 well microplate were added splenocytes cells (effector cells) 100 μl/well, YAC-1 cells (target cells, 1×10^4 cells/ml) 100 μl/well and ^3H-TdR 0.5 μci/well, in triplicate. After being incubated in a 37° C. incubator under 5% CO2 for 24 h, cells were collected, and CPM values were determined. The specific percentage inhibition (Pi), indicating the activity of NK cells, was calculated according to the above formula.

NK cells [2] = test: Activity of NK cells in mice in vitro (inhibition of 3H-TdR incorporation, YAC-1 target cells); type: cell-based, C57BL/6 mice; details: for CPM (x ± SD), activity of NK cells in mice in vitro: splenocytes:YAC-1 100:1, 24 h
Method: Method: The activity of NK cells were detected by the inhibition on ^3H-TdR incorporation.
Spleens were picked up from C57BL/6 mice in aseptic condition. Splenocytes, as effector cells, were adjusted to 1×10^6 cells/ml. YAC-1 cells, target cells, which have been cultured for 24 h, were adjusted to 1×10^4 cells/ml. The cells were added into wells of a 96 well microplate (100 μl/well). The experiment groups were as follows: the injection of the invention in four concentrations, lentinan (positive control group) in four concentrations, corresponding solvent (blank control I) and medium (blank control II). To each well of a 96 well microplate were added Splenocytes: YAC-1 cells=100: 1 (100 μl), test sample (100 μl) and ^3H-TdR 0.5 μci/well. After being incubated in a 37° C. incubator under 5% CO2 for 24 h, cells were collected, and CPM values were determined. The specific percentage inhibition (Pi), indicating the activity of NK cells, was calculated according to the formula: Pi=(1−CPMExp./CPMcont.)×100%

IL-2 = test: Production of IL-2 in mice suffering from L1210 leukemia (CTLL cell 3H-TdR incorporation); type: in vivo, DBA/2 mice; details: 20 mg/kg, iv × 7
Method: Each of 60 DBA/2 mice was inoculated subcutaneously with 1×10^4 L1210 leukemia cells of mice. Next day, the mice were grouped randomly into 6 groups (10 mice per group): Lentinan 20 mg/kg, the injection of the invention (6.25 ml/kg, 12.5 ml/kg and 25 ml/kg), solvent control and NS control. Animals were administered, i.v., for 7 days, then sacrificed. Spleens were picked up in aseptic condition. Splenocytes were prepared and adjusted into 1×10^7/ml. To each well of a 24 well plate were added splenocytes cells (2 ml) and Con A (5 μg/ml). After the plate was incubated in a 37° C. incubator under 5% CO2 for 24 h, the supernate was collected. The activity of IL-2 was determined in IL-2 dependent CTLL cell strain by using the method of ^3H-TdR incorporation.

[3] = tested on: mice bearing L1210 leukemia cells; test: Splenic lymphopoiesis in mice bearing L1210 leukemia cells; type: in vivo, DBA/2 mice; details: 20 mg/kg, iv × 7
Method: Each of 60 DBA/2 mice was inoculated subcutaneously with 1×10^4 L1210 leukemia cells of mice. Next day, the mice were grouped randomly into 6 groups (10 mice per group): Lentinan 20 mg/kg, the injection of the invention (6.25 ml/kg, 12.5 ml/kg and 25 ml/kg), solvent control and NS control. Animals were administered, i.v., for 7 days, then sacrificed. Spleens were picked up in aseptic condition. Splenocytes were counted and adjusted into 1×10^7/ml. Cells (100 μl/well) and medium (100 μl/well) were added into wells of a 96 well microplate in triplicate. The 96 well microplate was incubated in a 37° C. incubator under 5% CO2 for 48 h. Then, ^3H-TdR (0.5 μci/well) was added and the incubation was continued for 20 h. Cells were collected, and CPM values were determined and compared with control groups. […] Lentinan has also shown immuno-enhancement effect.

Splenocytes = test: Splenic lymphopoiesis induced by ConA in mice in vitro (3H-TdR incorporation); type: cell-based, C57BL/6 mice
Method: Spleens were picked up from C57BL/6 mice in aseptic condition. Splenocytes were separated and the concentration of cells was adjusted to 1×10^7 cells/ml with RPMI 1640+15% FCS medium. The experiment groups were as follows: the injection of the invention in four concentrations, lentinan (positive control group) in four concentrations, corresponding solvent (blank control I) and medium (blank control II). 100 μl Cells, 100 μl solution of drug/control and 50 μl ConA were added in each well in triplicate. The 96 well microplate was incubated in a 37° C. incubator under 5% CO2 for 48 h. ^3H-TdR (0.5 μci/well) was added and the incubation was continued for 20 h. Cells were collected, and CPM values were determined in a liquid scintillation counter and compared with control groups. It is shown in the results (table 3) that the injection of the invention, as same as lentinan, has obviously facilitated the splenic lymphopoiesis in mice in vitro and the effect is linear dependent to the concentration.

## Lentinan
NK cells [1]
  CPM (x ± SD), activity of NK cells in mice bearing cancer: 5660 ± 260 CPM
  Pi (%), activity of NK cells in mice bearing cancer: 54.5%
NK cells [2]; 100 μl (1:1)
  Pi % (specific percentage inhibition, activity of NK cells) in vitro: 33.5%
  CPM (x ± SD), activity of NK cells in mice in vitro: 8130 ± 930 CPM
NK cells [2]; 100 μl (1:2)
  Pi % (specific percentage inhibition, activity of NK cells) in vitro: 35.5%
  CPM (x ± SD), activity of NK cells in mice in vitro: 7892 ± 995 CPM
NK cells [2]; 100 μl (1:4)
  Pi % (specific percentage inhibition, activity of NK cells) in vitro: 54.5%
  CPM (x ± SD), activity of NK cells in mice in vitro: 5544 ± 85 CPM
NK cells [2]; 100 μl (stock solution)
  Pi % (specific percentage inhibition, activity of NK cells) in vitro: 29.5%
  CPM (x ± SD), activity of NK cells in mice in vitro: 8625 ± 1135 CPM
IL-2
  CPM (x ± SD), production of IL-2 in mice suffering from L1210 leukemia: 2750 ± 123 CPM
[3]
  CPM (x ± SD), splenic lymphopoiesis in mice bearing L1210 leukemia cells: 7410 ± 770 CPM
Splenocytes; 100 μl (1:1)
  CPM (x ± SD), splenic lymphopoiesis in mice in vitro: 7700 ± 747 CPM
Splenocytes; 100 μl (1:2)
  CPM (x ± SD), splenic lymphopoiesis in mice in vitro: 11025 ± 1133 CPM
Splenocytes; 100 μl (1:4)
  CPM (x ± SD), splenic lymphopoiesis in mice in vitro: 11555 ± 1279 CPM
Splenocytes; 100 μl (stock solution)
  CPM (x ± SD), splenic lymphopoiesis in mice in vitro: 7420 ± 957 CPM

From US9585858B2, “Pharmaceutical composition containing 13 triglycerides, and preparations and use thereof” (ZHEJIANG KANGLAITE GROUP CO., LTD., priority 2014, dated 2017)
